US7560466B2, “Methods of treating or preventing autoimmune diseases with 2,4-pyrimidinediamine compounds” (Rigel Pharmaceuticals, Inc., priority 2003, dated 2009)
pIC50: −log10 of the molar value. Like-named read-outs stand apart in the source and are kept apart here.

Test system: cultured human mast cells (CHMC), IgE-induced degranulation
Experiment: CHMC low cell density IgE activation: tryptase assay
Type: cell-based
Description: Inhibition of degranulation was measured at both low and high cell density by quantifying the release of the granule specific factors tryptase, histamine and hexosaminidase. Inhibition of release and/or synthesis of lipid mediators was assessed by measuring the release of leukotriene LTC4 and inhibition of release and/or synthesis of cytokines was monitored by quantifying TNF-α, IL-6 and IL-13. Tryptase and hexosaminidase were quantified using fluorogenic substrates as described in their respective examples. […] The protocols of the various assays are provided below.
A second phase is performed to convert the expanded CD34-negative progenitor cells into differentiated mucosal mast cells. These mucosal cultured human mast cells (“CHMC”) are derived from CD34+ cells isolated from umbilical cord blood and treated to form a proliferated population of CD34-negative progenitor cells, as described above. […] Also, the cytokine composition of the medium was modified such that it contained SCF (200 ng/mL) and recombinant human IL-6 (200 ng/mL; Peprotech, Catalog No. 200-06 reconstituted to 100 ug/mL in sterile 10 mM acetic acid) (“CM/SCF/IL-6 medium”).
Pellet CHMC cells (980 rpm, 10 min) and resuspend in pre-warmed MT. Add 65 ul of cells to each 96-well plate. Depending on the degranulation activity for each particular CHMC donor, load 1000-1500 cells/well. Mix four times followed by a 1 hr incubation at 37° C. […] Stimulate cells by adding 25 ul of 6× anti-IgE solution to the appropriate plates. Add 25 ul MT to un-stimulated control wells. Mix twice following addition of the anti-IgE. Incubate at 37° C. for 30 minutes. […] Spin plates at 1000 rpm for 10 min to pellet cells. Transfer 25 ul of supernatant to a 96-well black bottom plate and add 100 ul of freshly diluted tryptase substrate solution to each well. Incubate plates at room temperature for 30 min.
In Table 1, all reported values are IC50s (in μM). […] In Table 1, all reported values are IC50s (in μM).

[1] = low cell density CHMC, 3pt, read-out: LD Tryptase, CHMC, IgE, 3pt
[2] = low cell density CHMC, 8pt, read-out: LD Tryptase, CHMC, IgE, 8pt
[3] = Homo sapiens, Mast cell, low cell density CHMC, 8pt, read-out: LD Tryptase, CHMC, IgE, 8pt
[4] = CHMC low cell density, 3pt, read-out: LD Tryptase, CHMC, IgE, 3pt
[5] = CHMC low cell density, 8pt, read-out: LD Tryptase, CHMC, IgE, 8pt
[6] = low cell density CHMC, 8-point, read-out: LD Tryptase, CHMC, IgE, 8pt

pIC50 [4]	pIC50 [5]	Compound	further results
> 5.00	> 5.00	Cn1c(=O)[nH]c2cc(Nc3ncc(F)c(Nc4ccc5c(n4)NC(=O)C(C)(C)O5)n3)ccc21 [Compound 908, N4-(2,2-Dimethyl-3-oxo-4H-5-pyrid[1,4]oxazin-6-yl)-N2-(2,3-dihydro-1-methyl-2-oxo-benzimidazol-5-yl)-5-fluoro-2,4-pyrimidinediamine]	–
–	> 5.00	COC(=O)CN1C(=O)C(C)(C)Oc2ccc(Nc3nc(Nc4cc(OC)c(OC)c(OC)c4)ncc3F)nc21 [Compound 690, N4-(2,2-Dimethyl-4-carbomethoxymethyl-3-oxo-5-pyrid[1,4]oxazin-6-yl)-5-fluoro-N2-(3,4,5-trimethoxyphenyl)-2,4-pyrimidinediamine]	–
–	> 5.00	CC1(C)Oc2ccc(Nc3nc(Nc4ccc5c(cnn5CCCN5C(=O)c6ccccc6C5=O)c4)ncc3F)cc2NC1=O [Compound 817, N4-(2,2-Dimethyl-3-oxo-4H-benz[1,4]oxazin-6-yl)-5-fluoro-N2-[1-[3-(N-phthalimidopropyl)]indazol-5-yl]-2,4-pyrimidinediamine]	–
> 5.00	> 5.00	Cc1nc2cc(Nc3ncc(F)c(Nc4ccc5c(n4)NC(=O)C(C)(C)O5)n3)ccc2n1CCCNS(C)(=O)=O [Compound 964, N4-(2,2-Dimethyl-3-oxo-4H-5-pyrido[1,4]oxazin-6-yl)-5-fluoro-N2-[2-methyl-1-[3-(N-methylsulfonylamino)propyl]benzimidazol-5-yl]-2,4-pyrimidinediamine]	–
> 5.00	> 5.00	CC1(C)Oc2ccc(Nc3nc(Nc4ccc5c(cnn5CCCN5C(=O)CCC5=O)c4)ncc3F)cc2NC1=O [Compound 855, N4-(2,2-Dimethyl-3-oxo-4H-benz[1,4]oxazin-6-yl)-5-fluoro-N2-[1-[3-(N-succinimidopropyl)]indazol-5-yl]-2,4-pyrimidinediamine]	–
> 5.00	> 5.00	Cc1nc2cc(Nc3ncc(F)c(Nc4ccc5c(n4)NC(=O)C(C)(C)O5)n3)ccc2n1CCCO [Compound 951, N4-(2,2-Dimethyl-3-oxo-4H-5-pyrido[1,4]oxazin-6-yl)-5-fluoro-N2-[1-(3-hydroxypropyl)-2-methylbenzimidazol-5-yl]-2,4-pyrimidinediamine]	–

Continued, compound first:

Compound	pIC50 [4]	pIC50 [5]	further results
CC1(C)COc2ccc(Nc3nc(Cl)ncc3F)cc2N1 [Compound 320, N2-Chloro-N4-(3,3-dimethyl-1,4-benzoxazin-6-yl)-5-fluoro-pyrimidinea mine]	–	–	pIC50 [1]: > 5.00
COc1cc(Nc2ncc(F)c(Nc3ccc4c(c3)NC(=O)CS4(=O)=O)n2)cc(OC)c1OC [Compound 306, 5-Fluoro-N2-(3,4,5-triimethoxylphenyl)-N4-(1,1,3-trioxo-2H,4H-benzo[1,4]thiazin-6-yl)-2,4-pyrimidinediamine]	–	–	pIC50 [2]: > 5.00
CC1(C)COc2ccc(Nc3nc(Nc4cc5c6c(c4)c(CCO)cn6CCO5)ncc3F)cc2N1 [Compound 206, N4-(3,4-Dihydro-3,3-dimethyl-2H,4H-benz[1,4]oxazin-6-yl)-5-fluoro-N2-[6-(2-hydroxyethyl)-2,3-dihydropyrrolo[1,2,3-d,e]benzoxazin-8-yl]-2,4-pyrimidinediamine]	–	–	pIC50 [2]: > 5.00
CC1C(=O)Nc2cc(Nc3nc(Nc4cccc(O)c4)ncc3F)ccc2S1(=O)=O (racemic) [Compound 284, racemic-5-Fluoro-N2-[3-hydoxyphenyl]-N4-(2-methyl-1,1,3-trioxo-2H,4H-benzo[1,4]thiazin-6-yl)-2,4-pyrimidinediamine]	–	–	pIC50 [2]: > 5.00
C[C@@H]1Oc2ccc(Nc3nc(NC4=CC=CC(=CNC(=O)OC(C)(C)C)C4)ncc3F)cc2NC1=O [Compound 1276]	–	–	pIC50 (Homo sapiens, Mast cell, low cell density CHMC, 3pt, read-out: LD Tryptase, CHMC, IgE, 3pt): > 5.00; pIC50 [3]: > 5.00
CNC(=O)COc1cccc(Nc2ncc(F)c(Nc3ccc4c(c3)NC(=O)C(C)(C)S4(=O)=O)n2)c1 [Compound 275, N4-(2,2-Dimethyl-1,1,3-trioxo-4H-benzo[1,4]thiazin-6-yl)-5-fluoro-N2-[3-(N-methylamino)carbonylmethyleneoxyphenyl]-2,4-pyrimidinediamine]	–	–	pIC50 [2]: > 5.00
CN1C(=O)C(C)(C)Oc2ccc(Nc3ncc(F)c(Nc4ccc5c(n4)N(C)C(=O)C(C)(C)O5)n3)nc21 [Compound 687, N2,N4-Bis(3-oxo-2,2,4-trimethyl-5-pyrid[1,4]oxazin-6-yl)-5-fluoro-2,4-pyrimidinediamine]	> 5.00	–	–
CCc1ccc(S(=O)(=O)O)cc1.COc1cc(Nc2ncc(F)c(Nc3ccc4c(n3)NC(=O)C(C)(C)O4)n2)cc(OC)c1OC [Compound 679, N4-(2,2-Dimethyl-3-oxo-4H-5-pyrid[1,4]oxazin-6-yl)-5-fluoro-N2-(3,4,5-trimethoxyphenyl)-2,4-pyrimidinediamine p-Ethylbenzenesulfonic Acid Salt]	> 5.00	> 5.00	–
N2-(4-Aminocarbonylphenyl)-N4-(2,2-dimethyl-3-oxo-4H-5-pyrid[1,4]oxazin-6-yl)-5-fluoro-2,4-pyrimidinediamine [Compound 1315]	–	–	pIC50 [1]: > 5.00
N4-(2,2-Dimethyl-3-oxo-4H-N4-oxo-5-pyrido[1,4]oxazin-6-yl)-5-fluoro-N2-(3,4,5-trimethoxyphenyl)-2,4-pyrimidinediamine [Compound 1340]	–	–	pIC50 [1]: > 5.00; pIC50 [2]: > 5.00
CCN(CC)Cc1nc2cc(Nc3ncc(F)c(Nc4ccc5c(n4)NC(=O)C(C)(C)O5)n3)ccc2n1C [Compound 974, N2-[2-(N,N-Diethylaminomethyl)-1-methylbenzimidazol-5-yl]-N4-(2,2-dimethyl-3-oxo-4H-5-pyrido[1,4]oxazin-6-yl)-5-fluoro-2,4-pyrimidinediamine]	> 5.00	> 5.00	–
CNC(=O)COc1cccc(Nc2ncc(F)c(Nc3ccc4c(n3)NC(=O)C(C)(C)O4)n2)c1C [Compound 1079, N4-(2,2-Dimethyl-3-oxo-4H-5-pyrid [1,4]oxazin-6-yl)-5-fluoro-N2-[2-methyl-3-(N-methylamino)carbonylmethyleneoxyphenyl]-2,4-pyrimidinediamine]	–	–	pIC50 [6]: > 5.00
CC1(C)Oc2ccc(Nc3nc(Nc4ccc5oncc5c4)ncc3F)nc2NC1=O [Compound 928, N2-(1,2-Benzisoxazol-5-yl)-N4-(2,2-dimethyl-3-oxo-4H-5-pyrido[1,4]oxazin-6-yl)-5-fluoro-2,4-pyrimidinediamine]	–	> 5.00	–
CN1CCN(c2ccc(Nc3ncc(F)c(Nc4ccc5c(n4)NCCO5)n3)cc2Cl)CC1 [Compound 1197, N2-[3-Chloro-4-(4-methylpiperazino)phenyl]-N4-(3,4-dihydro-2H,4H-5-pyrid[1,4]oxazin-6-yl)-5-fluoro-2,4-pyrimidinediamine]	–	–	pIC50 [1]: > 5.00; pIC50 [2]: > 5.00
C[C@@H]1Oc2ccc(Nc3nc(Nc4ccc5c(cnn5CCCN5C(=O)CCC5=O)c4)ncc3F)cc2NC1=O [Compound 856, (S)-5-Fluoro-N4-(2-methyl-3-oxo-2H,4H-benz[1,4]oxazin-6-yl)-N2-[1-[3-(N-succinimidopropyl)]indazol-5-yl]-2,4-pyrimidinediamine]	> 5.00	> 5.00	–
Cc1cc(C)cc(Nc2ncc(F)c(Nc3ccc4c(c3)OC(F)(F)C(F)(F)O4)n2)c1 [Compound 362, N2-(3,5-Dimethyphenyl)-5-fluoro-N4-[3,4-(tetrafluoroethylenedioxy)phenyl]-2,4-pyrimidinediamine]	> 5.00	< 5.00	–
CC1Sc2ccc(Nc3nc(Cl)ncc3F)cc2NC1=O (racemic) [Compound 314, racemic-N2-Chloro-5-fluoro-N4-(2-methyl-3-oxo-2H,4H-benzo[1,4]thiazin-6-yl)-4-pyrimidinea mine]	–	–	pIC50 [1]: > 5.00
OC=C1C=C(Nc2ncc(F)c(Nc3ccc4c(c3)OCCO4)n2)CC(=CO)C1 [Compound 342]	–	–	pIC50 [3]: > 5.00
O=C1CSc2ccc(Nc3nc(Cl)ncc3F)cc2N1 [Compound 313, N2-Chloro-5-fluoro-N4-(3-oxo-2H,4H-benzo[1,4]thiazin-6-yl)-4-pyrimidinea mine]	–	–	pIC50 [1]: > 5.00
O=C1CS(=O)(=O)c2ccc(Nc3nc(Cl)ncc3F)cc2N1 [Compound 315, N2-Chloro-5-fluoro-N4-(1,1,3-trioxo-2H,4H-benzo[1,4]thiazin-6-yl)-4-pyrimidinea mine]	–	–	pIC50 [1]: < 5.00
CC(=O)N1CCN(c2ccc(Nc3ncc(F)c(Nc4ccc5c(n4)NCCO5)n3)cc2)CC1 [Compound 1134, N2-[4-(4-Acetylpiperazino)phenyl]-N4-(3,4-dihydro-2H,4H-5-pyrid[1,4]oxazin-6-yl)-5-fluoro-2,4-pyrimidinediamine]	–	–	pIC50 (low cell density CHMC, 3-point, read-out: LD Tryptase, CHMC, IgE, 3pt): > 5.00; pIC50 [6]: > 5.00
